Laboratory results: ChEMBL document CHEMBL1133489, “Synthesis of FF-MAS from lithocholic acid” (Bioorg Med Chem Lett, 2000)

Species on record: Mus musculus
Assay: Compound was evaluated for meiosis inducing effect on immature mouse oocytes; Positive
Assay type: functional

**Q.** How did the Activity turn out when `CC(C)=CCC[C@@H](C)[C@H]1CC=C2C3=C(CC[C@@]21C)[C@@]1(C)CC[C@H](O)C(C)(C)[C@@H]1CC3` was run?
**A.** Positive
